The values below come from patent US11040036B2, “Pyruvate kinase activators for use in treating blood disorders” (Agios Pharmaceuticals, Inc., priority 2017, dated 2021).

A word on the AC50: it is the midpoint of the concentration-response curve, whichever way the signal moves.

Assay [1] has as its target T1, wild type PKR (Homo sapiens, UniProt P30613). As to the kind of experiment: PKR mutant assay (AC50), wild type PKR. The class given is biochemical. Conditions: wild type PKR enzyme; read-out: PKR WT AC50. The procedure: (§1) Example 11. PKR Mutant Assay
(§2) PKR or PKR mutant enzyme solution was diluted into a reaction mix, which contains 1× buffer (100 mM KCl, 50 mM Tris pH 7.5, 5 mM MgCl2) as well as PEP (cont depends on enzyme), 180 μM NADH, 0.5 units LDH, 1 mM DTT, 0.03% BSA; final assay concentrations after 1.11 fold dilution are indicated.
(§3) 2 μL of test compound was added into wells first, and then 180 μL reaction mix was added.
(§4) Reactions mixture with test compound was assembled except for ADP, and plates were stored for 60 minutes at room temperature.
(§5) 20 uL ADP was added to start reaction at room temperature and reaction progress was measured as changes in absorbance at 340 nm wavelength at room temperature.
(§6) Test Compound Preparation:
(§7) Test compound stock was made at 100× concentration in 100% DMSO (10 mM)
(§8) 1 to 3 dilutions were made for 11 points (i.e. 50 μl of first concentration added to 100 μl 100% DMSO to yield 3.33 mM, 50 μl of this added to 100 μl DMSO to yield 1.11 mM, and so forth) • 1 to 100 dilution into assay (2 μl in 200 μl) yielded starting concentration of 100 μM, decreasing 3 fold for 11 points.
(§9) Assay Buffer: 100 mM KCl, 50 mM Tris 7.5, 5 mM MgCl2, 1 ruM DTT, 0.03% BSA
(§10) Reaction Mixture: PKR mutant enzyme: 40-400 ng/well; ADP: 0.2-1.65 mM; PEP: 0.1-0.5 mM; NADH:180 μM; LDH: 0.5 units (Sigma #59023); DTT: 1 mM; BSA: 0.03%.

The target of a further assay is PKR K410E (Homo sapiens, UniProt P30613, K410E). Briefly: PKR mutant assay (AC50), PKR K410E. The class given is biochemical. Conditions: PKR K410E mutant enzyme. The procedure:
as §1, §2, §3, §4, §5, §6, §7, §8, §9, §10

In the next assay the target is PKR R510Q (Homo sapiens, UniProt P30613, R510Q). Briefly: PKR mutant assay (AC50), PKR R510Q. The class given is biochemical. Conditions: PKR R510Q mutant enzyme; read-out: PK R510Q AC50. Here is the method: as §1, §2, §3, §4, §5, §6, §7, §8, §9, §10
PKR R510Q, sequence (P30613 whole entry R510Q): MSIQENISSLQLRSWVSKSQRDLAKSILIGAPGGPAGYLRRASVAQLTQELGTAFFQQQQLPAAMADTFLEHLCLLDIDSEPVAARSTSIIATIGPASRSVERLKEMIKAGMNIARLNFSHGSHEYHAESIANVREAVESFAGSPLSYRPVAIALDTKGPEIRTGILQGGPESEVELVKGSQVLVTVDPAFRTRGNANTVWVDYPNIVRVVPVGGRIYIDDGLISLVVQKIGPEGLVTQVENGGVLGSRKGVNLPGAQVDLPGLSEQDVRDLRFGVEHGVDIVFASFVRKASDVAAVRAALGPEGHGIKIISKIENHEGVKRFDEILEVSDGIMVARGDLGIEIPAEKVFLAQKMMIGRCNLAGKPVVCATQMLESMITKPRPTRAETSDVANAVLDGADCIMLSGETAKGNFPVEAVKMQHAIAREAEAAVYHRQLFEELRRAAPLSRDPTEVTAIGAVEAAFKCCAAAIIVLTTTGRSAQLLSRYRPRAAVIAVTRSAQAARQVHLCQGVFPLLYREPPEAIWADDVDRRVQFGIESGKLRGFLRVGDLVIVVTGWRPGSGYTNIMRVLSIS
The target in assay [2] is T1, wild type PKR. Briefly: Cell based ATP assay in purified red blood cells. The arrangement: endogenous in cells; host or cells: purified red blood cells from blood of healthy volunteers. The conditions noted are these: RBCs, overnight at 37° C., ATP levels by Cell-Titer-Glo. The procedure:
Example 16. Red Blood Cell (RBC) Purification
Fresh blood drawn from healthy volunteers into K2EDTA tubes was collected. Whole blood was pelleted by spinning at 500 g for 10 minutes. Cut transfusion bag port off of Purecell leukocyte reduction neofilter (Fisher NCO267633) one (1) inch above filter. Attach a 10 ml syringe barrel to the remaining cut tubing attached to neofilter. The plasma layer was removed from the pellet of the whole blood and the pellet was resuspended in 2× volume of phosphate buffered saline (PBS). Transfer 9 ml re-suspended blood cell pellet to prepared 10 ml syringe that is attached to the neofilter. Allow whole blood to gravity flow through filter until all fluid runs through upper tubing into filter disc. Add plunger to the syringe, remove syringe from clamp and invert the filter, then plunge air through the syringe filter system. Using a new 5 ml syringe, remove filtered RBCs from the bag by the syringe port and transfer purified RBCs to a 5 ml snap cap tube that has been incubated on ice. Spin 5 ml snap cap tube at 500 g for 10 minutes at 15 C, aspirate supernatant and resuspend in AGAM (1×PBS, 1% glucose, 170 mg/L adenine, 5.25 g/L mannitol) at a density of 4×10^9 cells/mL.
Example 17. Cell Based ATP Assay
For cell based ATP assays, the compound as described herein was prepared in 100% DMSO as a 10 mM stock. Serial dilutions (1:4) were performed in 96-well V-bottom storage plate and then added 1:100 to 96-well V-bottom plates containing AGAM. RBCs were diluted in AGAM media to a density of 1×10^7 cells/mL before added 90 μL/well to black clear bottom assay plates (final compound concentration at 0.1% DMSO concentration). Assay plates were sealed using aluminum foil seals and incubated overnight at 37° C. in a humidified chamber. ATP levels were read out using Cell-Titer-Glo (Promega).

SMILES strings stand for the structures.

T1 sequence (P30613 whole entry): as the sequence (P30613 whole entry R510Q) above, with Q510R counted along it
PKR K410E, sequence (P30613 whole entry K410E): as the sequence (P30613 whole entry R510Q) above, with K410E, Q510R counted along it

As for `Cc1cccc(Cn2ncc3c4sc(Cc5cc[nH]n5)nc4n(C)c3c2=O)n1`, the AC50 on wild type PKR [1] is less than 300 nM; at PKR K410E, less than 300 nM; at PKR R510Q, less than 300 nM; at wild type PKR [2], no more than 1000 nM.
`Cn1c2nc(Cc3cc[nH]n3)sc2c2cnn(Cc3cccc(N)n3)c(=O)c21`: the AC50 at wild type PKR [1] is less than 300 nM; on PKR K410E it was less than 300 nM; on PKR R510Q, less than 300 nM; on wild type PKR [2], no more than 1000 nM.
Regarding `Cn1nncc1Cn1ncc2c3sc(Cc4cc[nH]n4)nc3n(C)c2c1=O`, the AC50 was greater than 800 nM at wild type PKR [1], greater than 800 nM on PKR K410E, greater than 800 nM at PKR R510Q and greater than 1000 nM at wild type PKR [2].
With `Cn1c2nc(Cc3nc(N)ccc3F)sc2c2cnn(Cc3cc[nH]n3)c(=O)c21`, the AC50 at wild type PKR [1] is less than 300 nM; on PKR K410E, less than 300 nM; on PKR R510Q, less than 300 nM; on wild type PKR [2], no more than 1000 nM.
With `Cn1ncc(Cn2ncc3c4sc(Cc5cc[nH]n5)nc4n(C)c3c2=O)n1`, the half-maximal activity concentration (AC50) on wild type PKR [1] was less than 300 nM; at PKR K410E, less than 300 nM; on PKR R510Q it was less than 300 nM; on wild type PKR [2] it was no more than 1000 nM.
As to `Cn1ccc(Cn2ncc3c4sc(Cc5cccc(N)n5)nc4n(C)c3c2=O)n1`, the AC50 on wild type PKR [1] is less than 300 nM; on PKR K410E, less than 300 nM; on PKR R510Q, less than 300 nM; at wild type PKR [2], no more than 1000 nM.
With `Cn1ccc(Cc2nc3c(s2)c2cnn(Cc4ccn[nH]4)c(=O)c2n3C)n1`, the concentration at half-maximal activity (AC50) at wild type PKR [1] was less than 300 nM; on PKR K410E, less than 300 nM; on PKR R510Q it was less than 300 nM; at wild type PKR [2] it was no more than 1000 nM.
As for `Cc1scnc1Cc1nc2c(s1)c1cnn(Cc3ccn[nH]3)c(=O)c1n2C`, the AC50 was less than 300 nM on wild type PKR [1], less than 300 nM on PKR K410E, less than 300 nM on PKR R510Q and no more than 1000 nM on wild type PKR [2].
Take `Cn1c2nc(Cc3nc(N)sc3F)sc2c2cnn(Cc3cc[nH]n3)c(=O)c21`: the AC50 was less than 300 nM at wild type PKR [1], less than 300 nM on PKR K410E, less than 300 nM on PKR R510Q and no more than 1000 nM on wild type PKR [2].
As to `Cn1c2nc(Cn3ccc([N+](=O)[O-])n3)sc2c2cnn(Cc3cc[nH]n3)c(=O)c21`, the AC50 at wild type PKR [1] is less than 300 nM; on PKR K410E, less than 300 nM; at PKR R510Q, less than 300 nM; at wild type PKR [2] it was no more than 1000 nM.
Turning to `Cn1c2nc(Cn3ccnn3)sc2c2cnn(Cc3cc[nH]n3)c(=O)c21`, the AC50 at wild type PKR [1] was less than 300 nM; at PKR K410E it was less than 300 nM; at PKR R510Q it was less than 300 nM; on wild type PKR [2] it was no more than 1000 nM.
As to `Cn1c2nc(Cc3n[nH]cc3F)sc2c2cnn(Cc3cc[nH]n3)c(=O)c21`, the AC50 at wild type PKR [1] was less than 300 nM; at PKR K410E, less than 300 nM; on PKR R510Q, less than 300 nM; on wild type PKR [2] it was no more than 1000 nM.
Take `Cc1ccc(Cn2ncc3c4sc(Cc5cc[nH]n5)nc4n(C)c3c2=O)nc1Cl`: the AC50 on wild type PKR [1] is less than 300 nM; at PKR K410E, less than 300 nM; at PKR R510Q it was less than 300 nM; at wild type PKR [2], no more than 1000 nM.
As for `Cn1c2nc(Cc3cc[nH]n3)sc2c2cnn(Cc3cc(F)[nH]n3)c(=O)c21`, the AC50 on wild type PKR [1] was less than 300 nM; on PKR K410E it was less than 300 nM; at PKR R510Q it was less than 300 nM; at wild type PKR [2], no more than 1000 nM.
`COc1scnc1Cn1ncc2c3sc(Cc4cc[nH]n4)nc3n(C)c2c1=O`: the AC50 was less than 300 nM on wild type PKR [1], less than 300 nM at PKR K410E, less than 300 nM on PKR R510Q and no more than 1000 nM on wild type PKR [2].
As to `Cc1scnc1Cc1nc2c(s1)c1cnn(Cc3c[nH]nn3)c(=O)c1n2C`, the AC50 on wild type PKR [1] is less than 300 nM; at PKR K410E, less than 300 nM; on PKR R510Q it was less than 300 nM; at wild type PKR [2], no more than 1000 nM.
Take `Cn1c2nc(Cc3cc[nH]n3)sc2c2cnn(Cc3cc(C(N)=O)[nH]n3)c(=O)c21`: the AC50 on wild type PKR [1] was 301 to 800 nM; on PKR K410E it was 301 to 800 nM; at PKR R510Q, greater than 800 nM; on wild type PKR [2] it was greater than 1000 nM.
On to `Cn1c2nc(Cc3ncsc3F)sc2c2cnn(Cc3cc[nH]n3)c(=O)c21`, for which the half-maximal activity concentration (AC50) at wild type PKR [1] is less than 300 nM; on PKR K410E, less than 300 nM; on PKR R510Q, less than 300 nM; at wild type PKR [2] it was no more than 1000 nM.
